From Sander's compilation of Henry's law constants (doi:10.1021/je700418a)

assay: Henry solubility constant Hcp at 298.15 K (mol/(m3 Pa)); conditions: reference: Helburn et al. (2008)

Row | Structure (SMILES) | Henry solubility constant Hcp
1 | CC(C)C12CCC(C)(CC1)O2 [1-methyl-4-(1-methylethyl)-7-oxabicyclo[2.2.1]heptane] | 0.039
2 | CC(C)O [2-propanol] | 0.68
3 | CC(C)=CCCC(C)=CC#N [3,7-dimethyl-2,6-octadienenitrile] | 0.029
4 | CCCCOC(C)=O [butyl ethanoate] | 0.021
5 | CCOCC [diethyl ether] | 0.095
6 | Cc1ccccc1 [methylbenzene] | 0.0014
7 | ClC=C(Cl)Cl [trichloroethene] | 0.00094

Second part, the compound after the results:

Row | Henry solubility constant Hcp | Structure (SMILES)
8 | 0.00026 | C=C(C)[C@H]1CC=C(C)CC1 [(R)-1-methyl-4-(1-methylethenyl)-cyclohexene]
9 | 8e-05 | C1CCCCC1 [cyclohexane]
10 | 0.0043 | CCCCCCCCCC=O [decanal]
11 | 0.0032 | ClCCl [dichloromethane]
